The results in this text go back to patent publication US20250289789A1, “REVERSIBLE LYSINE COVALENT MODIFIERS OF CDK2 AND USES THEREOF” (Terremoto Biosciences, Inc., priority 2023, published 2025).

Type in all cases: cell-based
Experiment [1] deals with Phospho-Rb Ser807/811 in OVCAR3 cells. Nature of the experiment: OVCAR3 Phospho-Rb Ser807/811 HTRF assay. To be noted: Homo sapiens, OVCAR-3, 1 h, OVCAR3 cells, Phospho-Rb Ser807/811 HTRF, 1 hour incubation; read-out: pRb-OVCAR3 IC50. The procedure: Cells were trypsinized and resuspended in 1 mM hydroxyurea (Sigma; H8627), 90% RPMI and 10% fetal bovine serum. […] Dose response curve normalized to DMSO control was plotted using four-parameter logistic model for IC50 calculation.
(Time-resolved FRET reads energy transfer from a long-lived donor to a nearby acceptor.)

Experiment [2] concerns the target T1, CDK2-NanoLuc fusion with CCNE1 in 293T or 293 cells (Homo sapiens, UniProt P24941).
T1 construct: host or cells: 293T (ATCC CRL-3216) or 293 (ATCC CRL-1573)
The experiment can be described thus: NanoBRET Target Engagement (TE) Intracellular Kinase Assay, CDK2/CCNE1. The conditions noted are these: NanoBRET TE intracellular kinase assay, 2-hour incubation, read-out: NanoBRET-CDK2/E1 IC50. The procedure: (§1) Inhibitory effects of compounds were measured in NanoBRET TE Intracellular Kinase Assay. […] Cells were co-transfected with 1 μg/mL of CDK-NanoLuc Fusion Vector (Promega; NV2701 for CDK1, NV2781 for CDK2, NV2811 for CDK4, NV2841 for CDK6) and 1 μg/mL of the corresponding Cyclin Expression Vector (Promega; NV2601 for CCNB1, NV2641 for CCNE1, NV2621 for CCND1, NV2631 for CCND3) using FuGENE HD Transfection Reagent (Promega; E2311). […] 20 uL/well of 3× Intracellular TE Nano-Glo Substrate/Inhibitor (Promega; N2162) were added to 384-well plates and incubated for 3 minutes at room temperature. NanoBRET signals (donor emission wavelength at 450 nm, acceptor emission wavelength at 610 nm) were measured using Envision plate reader (PerkinElmer). NanoBRET ratio was calculated by: BRET Ratio=raw signal for acceptor/raw signal for donor. Dose response curve normalized to DMSO control was plotted using four-parameter logistic model for IC50 calculation.
On the technique in general: Bioluminescence resonance energy transfer reports proximity on the nanometre scale.

Experiment [3] addresses T2, CDK4-NanoLuc fusion with CCND1 in 293T or 293 cells (Homo sapiens, UniProt P11802).
T2 construct: host or cells: 293T (ATCC CRL-3216) or 293 (ATCC CRL-1573)
Nature of the experiment: NanoBRET Target Engagement (TE) Intracellular Kinase Assay, CDK4/CCND1. To be noted: NanoBRET TE intracellular kinase assay, 2-hour incubation, read-out: NanoBRET-CDK4/D1 IC50. The procedure: as §1

T2 sequence (P11802 whole entry, the tested form may be a part): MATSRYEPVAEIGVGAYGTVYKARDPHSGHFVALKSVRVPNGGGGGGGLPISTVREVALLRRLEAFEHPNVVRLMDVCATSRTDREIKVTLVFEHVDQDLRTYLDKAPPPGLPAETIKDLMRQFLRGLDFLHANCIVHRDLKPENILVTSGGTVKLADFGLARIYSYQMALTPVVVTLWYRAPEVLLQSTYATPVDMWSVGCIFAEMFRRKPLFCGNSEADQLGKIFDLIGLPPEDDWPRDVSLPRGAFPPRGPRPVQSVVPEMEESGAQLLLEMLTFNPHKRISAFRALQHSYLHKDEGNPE
T2 sequence (P24385 whole entry partner, the tested form may be a part): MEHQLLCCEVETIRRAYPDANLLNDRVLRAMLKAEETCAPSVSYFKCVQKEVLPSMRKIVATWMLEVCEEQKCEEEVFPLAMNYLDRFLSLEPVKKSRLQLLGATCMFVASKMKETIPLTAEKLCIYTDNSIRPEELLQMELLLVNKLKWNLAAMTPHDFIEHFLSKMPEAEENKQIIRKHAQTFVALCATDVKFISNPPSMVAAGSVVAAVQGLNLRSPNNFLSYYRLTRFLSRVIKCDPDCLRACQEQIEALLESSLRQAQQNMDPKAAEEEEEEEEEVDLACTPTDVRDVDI

As for `COc1cc(O)c(C=O)c(OCC(=O)Nc2cc([C@H]3CC[C@@H](OC(=O)N[C@H](C)CC(F)F)C3)[nH]n2)c1` [Compound 119], the IC50 in experiment [1] was found to be 26.4 nM; in experiment [2], 2.31 nM; in experiment [3], 7860 nM.
Turning to `COc1cc(O)c(C=O)c(OCC(=O)Nc2cc([C@H]3CC[C@@H](OC(=O)N[C@@H](C)CF)C3)[nH]n2)c1` [Compound 120], the IC50 was found to be 13.4 nM in experiment [1], 2.64 nM in experiment [2] and 2970 nM in experiment [3].
In the case of `COc1cc(O)c(C=O)c(OCC(=O)Nc2cc([C@H]3CC[C@@H](OC(=O)N(C)CC(F)F)C3)[nH]n2)c1` [Compound 121], the IC50 in experiment [1] stood at 18.5 nM; in experiment [2], 1.99 nM; in experiment [3], 2440 nM.
In the same order, the values of `COc1cc(O)c(C=O)c(OCC(=O)Nc2cc([C@H]3CC[C@@H](OC(=O)N4C[C@H](F)[C@@H]4C)C3)[nH]n2)c1` [Compound 122] are 20.9 nM, 1.99 nM and 1310 nM.
Turning to `COc1cc(O)c(C=O)c(OCC(=O)Nc2cc([C@H]3CC[C@@H](OC(=O)N4[C@H](C)C[C@@H]4C)C3)[nH]n2)c1` [Compound 123], the IC50 is 27 nM in experiment [1], 2.62 nM in experiment [2] and 2570 nM in experiment [3].
For the molecule `COc1cc(O)c(C=O)c(OCC(=O)Nc2cc([C@H]3CC[C@@H](OC(=O)N4C[C@@H](F)[C@H](F)C4)C3)n[nH]2)c1` [Compound 124], the IC50 was determined as 37.7 nM in experiment [1], 1.99 nM in experiment [2] and 2580 nM in experiment [3].
Consider `COc1cc(O)c(C=O)c(OCC(=O)Nc2cc([C@H]3CC[C@@H](OC(=O)N4C[C@H](F)C[C@@H]4C)C3)n[nH]2)c1` [Compound 125], for which the IC50 in experiment [1] stood at 53.4 nM; in experiment [2], 3.12 nM; in experiment [3], 1540 nM.
With `COc1cc(O)c(C=O)c(OCC(=O)Nc2cc([C@H]3CC[C@@H](OC(=O)NCC#N)C3)[nH]n2)c1` [Compound 127], the IC50 stood at 98.3 nM in experiment [1], 25.9 nM in experiment [2] and 8530 nM in experiment [3].
In the case of `COc1cc(O)c(C=O)c(OCC(=O)Nc2cc([C@H]3CC[C@@H](OC(=O)N4CC(F)(F)C4)C3)[nH]n2)c1` [Compound 129], the IC50 in experiment [1] was determined as 44.5 nM; in experiment [2] it was 1.96 nM; in experiment [3], 7620 nM.
In the case of `COc1cc(O)c(C=O)c(O[C@H](C)C(=O)Nc2cc([C@H]3CC[C@@H](OC(=O)NC4(C)CC4)C3)[nH]n2)c1` [Compound 130, (1R,3S)-3-(3-((R)-2-(2-formyl-3-hydroxy-5-methoxyphenoxy)propanamido)-1H-pyrazol-5-yl)cyclopentyl (1-methylcyclopropyl)carbamate], the values for the IC50 in experiment [1], in experiment [2] and in experiment [3] were 24.9 nM, 3.69 nM and 864 nM, respectively.
With `COc1cc(O)c(C=O)c(OCC(=O)Nc2cc([C@H]3CC[C@@H](OC(=O)N4CCC[C@H](C#N)C4)C3)[nH]n2)c1` [Compound 131, (1R,3S)-3-{5-[2-(2-formyl-3-hydroxy-5-methoxyphenoxy)acetamido]-2H-pyrazol-3-yl}cyclopentyl (3S)-3-cyanopiperidine-1-carboxylate], the values for the IC50 in experiment [1], in experiment [2] and in experiment [3] were 12.5 nM, 3.25 nM and 697 nM, respectively.
Take `COc1cc(O)c(C=O)c(OCC(=O)Nc2cc([C@H]3CC[C@@H](OC(=O)N[C@@H]4C[C@@H]4F)C3)[nH]n2)c1` [Compound 133]: the IC50 was 19.6 nM in experiment [1], 4.42 nM in experiment [2] and 2800 nM in experiment [3].
For the molecule `COc1cc(O)c(C=O)c(OCC(=O)Nc2cc([C@H]3CC[C@@H](OC(=O)N[C@@H](C)C(F)F)C3)[nH]n2)c1` [Compound 134], the IC50 in experiment [1] turned out to be 37.1 nM; in experiment [2] it was 3.26 nM; in experiment [3] it was 3800 nM.
Regarding `CCCONC(=O)O[C@@H]1CC[C@H](c2cc(NC(=O)COc3cc(OC)cc(O)c3C=O)n[nH]2)C1` [Compound 135], the IC50 is 92.7 nM in experiment [1], 3.41 nM in experiment [2] and more than 10000 nM in experiment [3].
Turning to `COc1cc(O)c(C=O)c(OCC(=O)Nc2cc([C@H]3CC[C@@H](OC(=O)NC4(CF)CC4)C3)[nH]n2)c1` [Compound 136], the IC50 came out at 16.9 nM in experiment [1], 2.22 nM in experiment [2] and 1420 nM in experiment [3].
On to `COc1cc(O)c(C=O)c(OCC(=O)Nc2cc([C@H]3CC[C@@H](OC(=O)NCc4cnn(C)c4)C3)[nH]n2)c1` [Compound 137], for which the IC50 is 295 nM in experiment [1], 21.6 nM in experiment [2] and more than 10000 nM in experiment [3].
Take `COc1cc(O)c(C=O)c(OCC(=O)Nc2cc([C@H]3CC[C@@H](OC(=O)N[C@H]4C[C@@H](C#N)C4)C3)[nH]n2)c1` [Compound 138]: the IC50 in experiment [1] was determined as 80.6 nM; in experiment [2], 4.71 nM; in experiment [3] it was 5860 nM.
With `Cc1cc(O)c(C=O)c(OCC(=O)Nc2cc([C@H]3CC[C@@H](OC(=O)NC4(C#N)CC4)C3)[nH]n2)c1` [Compound 139], the results for the IC50 in experiment [1], in experiment [2] and in experiment [3] were 178 nM, 12.9 nM and 3990 nM, respectively.
In the same order, the values of `COc1cc(O)c(C=O)c(OCC(=O)Nc2cc([C@H]3CC[C@@H](OC(=O)NC4(C(F)F)CC4)C3)[nH]n2)c1` [Compound 140, (1R,3S)-3-{5-[2-(2-formyl-3-hydroxy-5-methoxyphenoxy)acetamido]-2H-pyrazol-3-yl}cyclopentyl N-[1-(difluoromethyl)cyclopropyl]carbamate] are 16.1 nM, 2.82 nM and 1080 nM.
The like results for `CCc1cc(O)c(C=O)c(OCC(=O)Nc2cc([C@H]3CC[C@@H](OC(=O)NC4(C)CC4)C3)[nH]n2)c1` [Compound 141] were, in that order, 100 nM, 1.87 nM and 5500 nM.
As for `COc1cc(O)c(C=O)c(OCC(=O)Nc2cc([C@H]3CC[C@@H](OC(=O)NCC(F)F)C3)[nH]n2)c1` [Compound 142], the IC50 in experiment [1] turned out to be 53.3 nM; in experiment [2] it was 3.76 nM; in experiment [3], 7020 nM.
Take `COc1cc(O)c(C=O)c(OCC(=O)Nc2cc([C@H]3CC[C@@H](OC(=O)NC[C@H]4CCO4)C3)[nH]n2)c1` [Compound 143]: the IC50 in experiment [1] is 142 nM; in experiment [2], 13.1 nM; in experiment [3] it was more than 10000 nM.
Turning to `C#CCN(CC)C(=O)O[C@@H]1CC[C@H](c2cc(NC(=O)COc3cc(OC)cc(O)c3C=O)n[nH]2)C1` [Compound 144], the values for the IC50 in experiment [1], in experiment [2] and in experiment [3] were 29 nM, 2.36 nM and 2340 nM, respectively.
As to `Cc1cc(O)c(C=O)c(OCC(=O)Nc2cc([C@H]3CC[C@@H](OC(=O)NC4(C)CC4)C3)[nH]n2)c1` [Compound 145], the IC50 in experiment [1] is 64.3 nM; in experiment [2] it was 3.46 nM; in experiment [3], 4070 nM.
Regarding `COc1cc(O)c(C=O)c(OCC(=O)Nc2cc([C@H]3CC[C@@H](OC(=O)NC4(CC#N)CC4)C3)[nH]n2)c1` [Compound 146], the figures for the IC50 in experiment [1], in experiment [2] and in experiment [3] were 40.9 nM, 9.88 nM and 2380 nM, respectively.
Take `CCN(CC#N)C(=O)O[C@@H]1CC[C@H](c2cc(NC(=O)COc3cc(OC)cc(O)c3C=O)n[nH]2)C1` [Compound 147]: the results for the IC50 in experiment [1], in experiment [2] and in experiment [3] were 13.8 nM, 2.85 nM and 2260 nM, respectively.
Consider `COc1cc(O)c(C=O)c(OCC(=O)Nc2cc([C@H]3CC[C@@H](OC(=O)NC4(C#N)CCC4)C3)[nH]n2)c1` [Compound 148], for which the IC50 in experiment [1] was determined as 113 nM; in experiment [2] it was 6.97 nM; in experiment [3] it was 4250 nM.
